Laboratory results published in patent US12460215B2, “Bacillus expression system” (WILLIAM MARSH RICE UNIVERSITY, priority 2018, dated 2025).

Assays:
[1] = tested on: LacI lactose operon repressor (SEQ ID NO 11), LacI-T7 system (Phy-spank-T7 RNAP / PT7lac, sfgfp reporter); assay: IPTG dose response of the LacI-T7 inducible promoter system (steady state transfer function, sfGFP fluorescence by flow cytometry); type: cell-based, B. subtilis PY79; details: Hill function fit
From the text: (§1) FIG. 1E sfGFP Fluorescence from LacI-T7 and Phy-spank as a function of IPTG concentration.
Next, we measured the steady state transfer function of both systems by growing the corresponding strains under different concentrations of IPTG. In both cases, sfGFP fluorescence increases as a function of IPTG concentration in a manner well-approximated by a Hill function (FIG. 1E).
For each experiment, an overnight LB culture was started from the freezer stock of each relevant strain. The next day, saturated cultures (OD600˜3) were diluted 10^5-fold in M9. […]
(§2) The sfGFP fluorescence distribution of each culture was measured using a BD FACScan flow cytometer with an excitation source of 488 nm and an emission window of 510/21 nm. […] A suspension of calibration beads (Spherotech® RCP-30-5A) in PBS was measured with each experiment. […]
(§3) Cell populations were gated by forward scatter/side scatter density (not shown) retaining 50% of the total number of events. Next, fluorescence of each gated event in arbitrary units was converted into standardized MEFL values using the calibration bead data. The total cellular fluorescence of each culture sample was then obtained by calculating the median MEFL fluorescence of all gated events in that sample. […] Numerical sfGFP fluorescence values of every sample and replicate can be found in Table 1.

[2] = tested on: LacI lactose operon repressor (SEQ ID NO 11), Phy-spank system (sfgfp reporter); assay: IPTG dose response of the Phy-spank inducible promoter system (steady state transfer function, sfGFP fluorescence by flow cytometry); type: cell-based, B. subtilis PY79; details: Hill function fit
From the text: as §1
Phy-spank is a variant of the IPTG-inducible promoter Pspac optimized for higher expression and dynamic range, and is perhaps the most widely used B. subtilis inducible promoter system. We constructed a second B. subtilis strain wherein sfgfp* was expressed under the control of Phy-spank, RiboJ, and RBS MF001 to compare its performance to that of LacI-T7.
Next, we measured the steady state transfer function of both systems by growing the corresponding strains under different concentrations of IPTG. In both cases, sfGFP fluorescence increases as a function of IPTG concentration in a manner well-approximated by a Hill function (FIG. 1E). […]
as §2
as §3, with “data.” for “data. The total cellular fluorescence of each culture sample was then obtained by calculating the median MEFL fluorescence of all gated events in that sample.”

[3] = Bacillus subtilis, IPTG detection threshold, sfGFP fluorescence, read-out: 50% activation concentration
[4] = sfGFP fluorescence as a function of IPTG concentration

In the case of CC(C)S[C@@H]1O[C@H](CO)[C@H](O)[C@H](O)[C@H]1O [IPTG, Isopropyl β-D-1-thiogalactopyranoside], the EC50 [1, 3] is reported as 54.1 ± 1.6 µM, the Hill coefficient [1, 4] is reported as 3.377±0.051 and the EC50 [2, 3] is reported as 50.2 ± 1.5 µM. For the same molecule, the Hill coefficient [2, 4] was 2.120±0.033.
